Literature values in patent publication US20260301880A1, “NOSE-TO-BRAIN PHYSIOLOGICALLY BASED PHARMACOKINETIC MODEL” (APTARGROUP INC., priority 2023, published 2026).

Assays:
[1] = octanol/water
[2] = not given; remark: listed apart in the source
[3] = literature value, porcine nasal mucosa
[4] = not given; remark: listed apart in the source
[5] = clinical
[6] = healthy volunteers
[7] = humans

## CN1C[C@H](C(=O)N[C@]2(C)O[C@@]3(O)[C@@H]4CCCN4C(=O)[C@H](Cc4ccccc4)N3C2=O)C[C@@H]2c3cccc4[nH]cc(c34)C[C@H]21 [DHE, dihydroergotamine]
other
  fu - fraction unbound in blood plasma: 0.03
[1]
  LogP: 2
[2]; acid
  pKa (acid): 9.71
[2]; base
  pKa (base): 8.39
[3]
  P - Permeability in the nasal epithelium: 1.48 × 10^−7

## CNS(=O)(=O)Cc1ccc2[nH]cc(CCN(C)C)c2c1 [sumatriptan]
[4]
  R - Blood/plasma ratio: 1
other
  fu - fraction unbound in blood plasma: 0.63
[5]
  reported nasal bioavailability: 16%
[6]
  oral bioavailability: low

## CC(=O)Nc1ccc(O)cc1 [paracetamol]
[7]
  PbAb - Permeability-surface area product between brain blood and brain mass: 1.875 L/h
